Active and inactive are the calls of the source. The rule behind the calls is not given here.
How the values were obtained:
[1] = test system: 4T1; assay: Antitumor activity against mouse 4T1 cells implanted in female BALB/c mouse model assessed as reduction in p-90RSK phosphorylation level at 50 mg/kg, po qd by immunohistochemical analysis; format: functional, organism-based
[2] = test system: HCC1937; assay: Antiproliferative activity against human HCC1937 cells incubated for 48 hrs by CCK-8 method; format: functional, cell-based; conditions: HCC1937, 48 h
[3] = test system: MCF7; assay: Induction of apoptosis in human MCF7 cells assessed as increase in caspase-3 cleavage at 0.5 to 2 uM by Western blot analysis; format: functional, cell-based; conditions: dose 0.5-2 µM
[4] = test system: 4T1-Luc; assay: Anti-metastatic activity in mouse 4T1-Luc cells assessed as reduction in enlarged alveolar space at 25 to 50 mg/kg, po measured after 20 days by H and E staining based analysis; format: functional, organism-based; conditions: dose 25-50 mg/kg, time 20.0 day
[5] = test system: MCF7; assay: Inhibition of colony formation in human MCF7 cells at 1 uM incubated for 6 hrs in presence of 3-methyladenine by crystal violet staining based analysis; format: functional, cell-based
[6] = test system: MCF7; assay: Activation of ERK1/2 pathway in human MCF7 cells assessed as increase in EGF-induced c-Myc phosphorylation at 2 uM incubated for 30 mins by Western blot analysis; format: cell-based
[7] = test system: MCF7; assay: Induction of autophagic flux in human MCF7 cells assessed as appearance of multi membrane structure at 0.5 to 2 uM by TEM based analysis; format: functional, cell-based; conditions: dose 0.5-2 µM
[8] = Cmax in Sprague-Dawley rat at 1 mg/kg, iv by LC-MS/MS analysis; format: ADME, organism-based; conditions: in vivo
[9] = biological target: Serine/threonine-protein kinase TAO2 (Homo sapiens) (UniProt Q9UL54); assay: Inhibition of human TAO2 at 10000 nM by DiscoverX KINOMEscan assay relative to control
[10] = test system: MCF7; assay: Induction of apoptosis in human MCF7 cells assessed as increase in Bax/Bcl-2 ratio at 0.5 to 2 uM by Western blot analysis; format: functional, cell-based; conditions: dose 0.5-2 µM
[11] = test system: MCF7; assay: Inhibition of colony formation in human MCF7 cells at 1 uM incubated for 6 hrs in presence of chloroquine by crystal violet staining based analysis; format: functional, cell-based
[12] = test system: MCF7; assay: Induction of apoptosis in human MCF7 cells assessed as early apoptotic cells at 0.5 uM incubated for 48 hrs by Annexin V/FITC and PI staining based flow cytometry analysis (reference value: 1.1%); format: functional
[13] = biological target: Macrophage colony-stimulating factor 1 receptor (Homo sapiens) (UniProt P07333); assay: Inhibition of human FMS at 10000 nM by DiscoverX KINOMEscan assay relative to control
[14] = test system: Mitochondrial membrane; assay: Induction of mitochondrial membrane potential loss in human MCF7 cells assessed as reduction in JC-1 aggregates by measuring decrease in red fluorescence at 2 uM by flow cytometry analysis (reference value: 24.7%); format: cell membranes; parameters: scale not given: the % may be the effect or the level left
[15] = Half life in Sprague-Dawley rat at 10 mg/kg, po by LC-MS/MS analysis; format: ADME, organism-based; conditions: in vivo
[16] = Toxicity in female BALB/c mouse assessed as effect on spleen at 25 to 50 mg/kg, po qd measured after 18 days by H and E staining based analysis; format: organism-based; conditions: in vivo, 432 h, dose 25-50 mg/kg, time 18 day
[17] = Half life in Sprague-Dawley rat at 1 mg/kg, iv by LC-MS/MS analysis; format: ADME, organism-based; conditions: in vivo
[18] = test system: MCF7; assay: Activation of ERK1/2 pathway in human MCF7 cells assessed as increase in EGF-induced ERK phosphorylation at 2 uM incubated for 30 mins by Western blot analysis; format: cell-based; conditions: filed as activator
[19] = Toxicity in female BALB/c mouse assessed as effect TP level in serum at 25 to 50 mg/kg, po qd measured after 18 days by biochemical analysis; format: organism-based; conditions: in vivo, 432 h, dose 25-50 mg/kg, time 18 day
[20] = test system: MCF-10A; assay: Antiproliferative activity against human MCF-10A cells incubated for 48 hrs by CCK-8 method; format: functional, cell-based
[21] = test system: MCF7; assay: Induction of autophagy in human MCF7 cells harbouring beclin1 knockout assessed as increase in LC3B expression at 1 uM incubated for 48 hrs by Western blot analysis; format: functional, cell-based
[22] = biological target: Mitogen-activated protein kinase; ERK1/ERK2 (Homo sapiens) (UniProt P27361+P28482); assay: Induction of thermal stabilization of ERK1/2 in human MCF7 cells at 10 uM incubated for 3 hrs at 65 to 75 degree C by […] method; format: cell-based
[23] = biological target: Vascular endothelial growth factor receptor 3 (Homo sapiens) (UniProt P35916); assay: Inhibition of human FLT4 at 10000 nM by DiscoverX KINOMEscan assay relative to control
[24] = AUC (0 to t) in Sprague-Dawley rat at 10 mg/kg, po by LC-MS/MS analysis; format: ADME, organism-based; conditions: in vivo
[25] = test system: 4T1; assay: Antitumor activity against mouse 4T1 cells implanted in female BALB/c mouse model assessed as reduction in Ki67 expression at 50 mg/kg, po in presence of chloroquine by immunohistochemical analysis; format: functional, organism-based
[26] = AUC (0 to infinity) in Sprague-Dawley rat at 1 mg/kg, iv by LC-MS/MS analysis; format: ADME, organism-based; conditions: in vivo
[27] = test system: MCF7; assay: Induction of apoptosis in human MCF7 cells assessed as early apoptotic cells at 1 uM incubated for 48 hrs by Annexin V/FITC and PI staining based flow cytometry analysis (reference value: 6.64%); format: functional
[28] = test system: 4T1; assay: Antitumor activity against mouse 4T1 cells implanted in female BALB/c mouse model assessed as increase in LC3B expression at 50 mg/kg, po in presence of chloroquine by immunohistochemical analysis; format: functional, organism-based
[29] = test system: MCF7; assay: Effect on MEK1/2 expression in human MCF7 cells at 0.5 to 2 uM measured after 30 mins to 4 hrs by Western blot analysis; format: functional, cell-based; conditions: dose 0.5-2 µM, time 30-240 min
[30] = test system: MCF7; assay: Induction of autophagy in human MCF7 cells assessed as increase in LC3B-II level at 1 uM by Western blot analysis; format: functional, cell-based
[31] = test system: MCF7; assay: Induction of apoptosis in human MCF7 cells assessed as early apoptotic cells at 2 uM incubated for 48 hrs by Annexin V/FITC and PI staining based flow cytometry analysis (reference value: 1.1%); format: functional
[32] = test system: MCF7; assay: Induction of autophagy in human MCF7 cells assessed as upregulation of beclin1 expression incubated for 48 hrs by Western blotting analysis; format: functional, cell-based; conditions: dose 0.5-2 µM
[33] = Toxicity in female BALB/c mouse assessed as effect on heart at 25 to 50 mg/kg, po qd measured after 18 days by H and E staining based analysis; format: organism-based; conditions: in vivo, 432 h, dose 25-50 mg/kg, time 18 day
[34] = AUC (0 to infinity) in Sprague-Dawley rat at 10 mg/kg, po by LC-MS/MS analysis; format: ADME, organism-based; conditions: in vivo
[35] = Toxicity in female BALB/c mouse assessed as effect CHO level in serum at 25 to 50 mg/kg, po qd measured after 18 days by biochemical analysis; format: organism-based; conditions: in vivo, 432 h, dose 25-50 mg/kg, time 18 day
[36] = test system: MCF7; assay: Induction of autophagy in human MCF7 cells assessed as upregulation of LC3B-II expression incubated for 48 hrs by Western blotting analysis; format: functional, cell-based; conditions: dose 0.5-2 µM
[37] = test system: MCF7; assay: Induction of autophagy in human MCF7 cells assessed as increase in LC3B expression at 1 uM incubated for 48 hrs in presence of 3-methyladenine by Western blot analysis; format: functional, cell-based

Macrophage colony-stimulating factor 1 receptor (Homo sapiens), sequence (P07333 whole entry): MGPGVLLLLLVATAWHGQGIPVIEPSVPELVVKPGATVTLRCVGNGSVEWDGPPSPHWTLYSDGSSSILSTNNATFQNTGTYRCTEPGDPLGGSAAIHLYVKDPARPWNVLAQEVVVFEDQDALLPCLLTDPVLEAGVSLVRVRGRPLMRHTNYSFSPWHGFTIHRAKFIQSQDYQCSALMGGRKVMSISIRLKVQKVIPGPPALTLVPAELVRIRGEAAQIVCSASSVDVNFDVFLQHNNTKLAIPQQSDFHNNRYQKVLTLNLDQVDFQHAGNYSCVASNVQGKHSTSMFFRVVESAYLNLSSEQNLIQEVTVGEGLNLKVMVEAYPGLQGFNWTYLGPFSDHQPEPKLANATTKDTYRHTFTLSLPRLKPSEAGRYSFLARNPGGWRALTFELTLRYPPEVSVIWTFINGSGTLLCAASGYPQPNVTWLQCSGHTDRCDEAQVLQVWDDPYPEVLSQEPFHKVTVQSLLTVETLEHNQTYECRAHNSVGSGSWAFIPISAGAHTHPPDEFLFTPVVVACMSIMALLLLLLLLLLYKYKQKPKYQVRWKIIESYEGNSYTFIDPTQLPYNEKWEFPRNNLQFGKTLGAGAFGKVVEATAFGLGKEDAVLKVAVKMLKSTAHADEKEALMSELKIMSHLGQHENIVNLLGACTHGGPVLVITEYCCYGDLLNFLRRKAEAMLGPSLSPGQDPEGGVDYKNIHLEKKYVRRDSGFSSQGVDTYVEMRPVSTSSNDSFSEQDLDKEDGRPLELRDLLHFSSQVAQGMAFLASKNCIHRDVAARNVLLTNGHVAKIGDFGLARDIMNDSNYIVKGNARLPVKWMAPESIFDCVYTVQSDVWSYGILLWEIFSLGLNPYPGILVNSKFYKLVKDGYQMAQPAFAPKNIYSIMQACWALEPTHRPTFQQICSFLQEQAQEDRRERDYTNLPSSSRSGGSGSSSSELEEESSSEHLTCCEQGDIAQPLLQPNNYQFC
Mitogen-activated protein kinase; ERK1/ERK2 (Homo sapiens), sequence (P27361 whole entry, looked up): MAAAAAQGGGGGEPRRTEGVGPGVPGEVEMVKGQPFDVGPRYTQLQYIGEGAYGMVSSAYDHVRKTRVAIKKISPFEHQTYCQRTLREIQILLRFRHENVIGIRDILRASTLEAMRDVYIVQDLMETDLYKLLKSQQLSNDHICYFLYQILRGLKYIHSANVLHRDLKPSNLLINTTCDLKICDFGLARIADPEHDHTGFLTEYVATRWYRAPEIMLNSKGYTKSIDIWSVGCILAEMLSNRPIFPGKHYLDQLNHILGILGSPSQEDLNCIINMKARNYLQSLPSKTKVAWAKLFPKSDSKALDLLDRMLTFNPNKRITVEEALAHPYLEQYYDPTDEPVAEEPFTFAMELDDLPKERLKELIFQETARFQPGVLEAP
Mitogen-activated protein kinase; ERK1/ERK2 (Homo sapiens), sequence (P28482 whole entry, looked up): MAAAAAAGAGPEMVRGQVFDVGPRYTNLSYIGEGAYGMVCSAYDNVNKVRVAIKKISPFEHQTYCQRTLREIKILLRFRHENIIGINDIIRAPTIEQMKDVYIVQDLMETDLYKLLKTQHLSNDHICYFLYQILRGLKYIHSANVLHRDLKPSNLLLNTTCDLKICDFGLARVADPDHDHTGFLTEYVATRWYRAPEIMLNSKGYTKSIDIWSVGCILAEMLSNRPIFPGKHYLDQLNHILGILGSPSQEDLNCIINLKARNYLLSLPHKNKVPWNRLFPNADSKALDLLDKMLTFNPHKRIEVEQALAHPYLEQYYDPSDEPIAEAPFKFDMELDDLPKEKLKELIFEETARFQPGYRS
Serine/threonine-protein kinase TAO2 (Homo sapiens), sequence (Q9UL54 whole entry): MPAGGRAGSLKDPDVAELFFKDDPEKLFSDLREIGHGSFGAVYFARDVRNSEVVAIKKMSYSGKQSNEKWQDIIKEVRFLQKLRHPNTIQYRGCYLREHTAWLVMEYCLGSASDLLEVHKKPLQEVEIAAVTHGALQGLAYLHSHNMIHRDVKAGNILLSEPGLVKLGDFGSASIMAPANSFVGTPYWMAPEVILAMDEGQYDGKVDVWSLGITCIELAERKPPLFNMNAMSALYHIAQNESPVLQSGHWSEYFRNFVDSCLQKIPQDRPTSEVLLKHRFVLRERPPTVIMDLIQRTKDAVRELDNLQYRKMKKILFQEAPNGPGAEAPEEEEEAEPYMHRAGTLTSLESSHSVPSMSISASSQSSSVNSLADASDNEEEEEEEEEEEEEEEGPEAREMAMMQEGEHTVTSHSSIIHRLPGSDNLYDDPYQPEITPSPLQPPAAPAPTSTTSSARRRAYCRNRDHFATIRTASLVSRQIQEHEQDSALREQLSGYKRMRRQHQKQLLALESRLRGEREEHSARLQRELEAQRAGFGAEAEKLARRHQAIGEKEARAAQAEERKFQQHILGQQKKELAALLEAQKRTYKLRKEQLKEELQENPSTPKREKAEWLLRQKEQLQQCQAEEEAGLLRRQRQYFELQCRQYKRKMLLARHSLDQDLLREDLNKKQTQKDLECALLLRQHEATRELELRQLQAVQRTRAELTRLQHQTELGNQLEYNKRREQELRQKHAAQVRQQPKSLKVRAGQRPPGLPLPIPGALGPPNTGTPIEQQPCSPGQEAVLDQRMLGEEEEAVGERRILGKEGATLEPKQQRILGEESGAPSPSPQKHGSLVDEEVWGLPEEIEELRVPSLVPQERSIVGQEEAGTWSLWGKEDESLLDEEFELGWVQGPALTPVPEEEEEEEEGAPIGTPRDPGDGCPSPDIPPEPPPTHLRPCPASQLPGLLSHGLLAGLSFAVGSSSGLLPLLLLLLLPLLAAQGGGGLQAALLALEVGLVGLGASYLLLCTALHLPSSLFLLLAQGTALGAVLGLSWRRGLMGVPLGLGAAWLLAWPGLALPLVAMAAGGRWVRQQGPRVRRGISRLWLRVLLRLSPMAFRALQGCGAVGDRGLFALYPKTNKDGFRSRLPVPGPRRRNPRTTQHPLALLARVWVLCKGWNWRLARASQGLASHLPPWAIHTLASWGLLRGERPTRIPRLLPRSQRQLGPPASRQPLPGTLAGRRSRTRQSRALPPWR
Vascular endothelial growth factor receptor 3 (Homo sapiens), sequence (P35916 whole entry): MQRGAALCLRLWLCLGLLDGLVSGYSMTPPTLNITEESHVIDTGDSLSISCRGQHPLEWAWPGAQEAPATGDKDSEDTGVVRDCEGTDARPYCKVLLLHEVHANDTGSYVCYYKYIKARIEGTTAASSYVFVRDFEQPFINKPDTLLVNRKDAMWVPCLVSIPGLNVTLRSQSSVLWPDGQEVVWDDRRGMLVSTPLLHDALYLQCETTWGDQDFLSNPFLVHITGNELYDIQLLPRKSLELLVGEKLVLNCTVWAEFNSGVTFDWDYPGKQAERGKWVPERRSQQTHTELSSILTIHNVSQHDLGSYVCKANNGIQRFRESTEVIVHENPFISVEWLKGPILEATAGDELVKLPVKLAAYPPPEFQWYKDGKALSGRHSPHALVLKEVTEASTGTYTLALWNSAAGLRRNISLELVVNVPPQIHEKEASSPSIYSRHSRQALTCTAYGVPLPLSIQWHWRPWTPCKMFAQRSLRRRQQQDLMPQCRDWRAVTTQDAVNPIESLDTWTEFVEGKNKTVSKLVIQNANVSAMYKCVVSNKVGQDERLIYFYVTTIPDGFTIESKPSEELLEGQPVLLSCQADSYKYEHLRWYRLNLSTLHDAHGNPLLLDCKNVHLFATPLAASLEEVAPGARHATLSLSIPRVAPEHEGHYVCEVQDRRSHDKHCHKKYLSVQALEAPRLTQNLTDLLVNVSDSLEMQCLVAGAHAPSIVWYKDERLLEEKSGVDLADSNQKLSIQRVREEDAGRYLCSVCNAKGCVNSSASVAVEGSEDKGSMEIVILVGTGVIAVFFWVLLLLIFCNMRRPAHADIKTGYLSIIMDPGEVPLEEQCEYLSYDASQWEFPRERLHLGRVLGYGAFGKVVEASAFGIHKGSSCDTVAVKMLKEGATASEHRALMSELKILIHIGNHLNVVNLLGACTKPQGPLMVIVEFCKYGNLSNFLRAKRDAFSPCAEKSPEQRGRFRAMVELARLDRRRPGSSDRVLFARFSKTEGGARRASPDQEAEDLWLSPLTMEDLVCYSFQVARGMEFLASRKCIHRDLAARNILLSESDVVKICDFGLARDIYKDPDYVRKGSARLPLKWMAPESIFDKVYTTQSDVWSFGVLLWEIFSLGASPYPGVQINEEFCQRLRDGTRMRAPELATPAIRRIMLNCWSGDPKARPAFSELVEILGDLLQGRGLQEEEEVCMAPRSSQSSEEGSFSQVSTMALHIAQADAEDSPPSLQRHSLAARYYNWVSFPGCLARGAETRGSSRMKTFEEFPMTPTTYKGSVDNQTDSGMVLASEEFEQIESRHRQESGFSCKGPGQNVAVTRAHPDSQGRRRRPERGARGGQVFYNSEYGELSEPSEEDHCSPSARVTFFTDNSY

- IC50 [2]: 1.68 µM
- Cmax [8]: 0.534 µg/mL
- inhibition [9]: 14%
- inhibition [13]: 19%
- Activity [14]: 5.4%
- half-life [15]: 2.51 h
- half-life [17]: 3.15 h
- Activity [22]: Active
- inhibition [23]: 18%
- AUC(0-t) [24]: 3.91 µg·h/mL
- AUC(0-inf) [26]: 1.1 µg·h/mL
- AUC(0-inf) [34]: 4.08 µg·h/mL
Compound: O=C(Nc1cc(C(F)(F)F)cc(C(F)(F)F)c1)N[C@@H](Cc1ccccc1)Cn1c[n+](Cc2ccc3ccccc3c2)c2ccccc21.[Br-]
- Activity [1]: Active
- Activity [3]: Active
- Activity [4]: Active
- inhibition [5]: Active
- Activity [6]: inactive
- Activity [7]: Active
- Activity [10]: Active
- inhibition [11]: Active
- Activity [12]: 9.9%
- Activity [16]: Non-toxic
- Activity [18]: Active
- Activity [19]: Non-toxic
- IC50 [20]: > 10 µM
- Activity [21]: inactive
- Activity [25]: Active
- Activity [27]: 4.58%
- Activity [28]: Active
- Activity [29]: inactive
- Activity [30]: Active
- Activity [31]: 12.9%
- Activity [32]: Dose-dependent-effect
- Activity [33]: Non-toxic
- Activity [35]: Non-toxic
- Activity [36]: Dose-dependent-effect
- Activity [37]: inactive

From ChEMBL document CHEMBL6153138, “Discovery of Novel Aromatic Urea-Imidazole Salt Derivatives for Cancer Therapy via Targeting ERK1/2” (J Med Chem, 2025)
